The source of these data is US8759535B2, “Substituted fused imidazole derivatives, pharmaceutical compositions, and methods of use thereof” (High Point Pharmaceuticals, LLC, priority 2010, dated 2014).

Counter-ions that a name gives are not always drawn.

The fold induction is the ratio of treated to control signal. Lower therefore signals little rise in signal.

The subject of the assay is HMOX1. Kind of assay: HMOX1 Protein Assay (immunostaining of HO-1 in NHLF cells, GE InCell 1000). Type of assay: cell-based. The following applies: Homo sapiens, fold change above DMSO treated cells, 16 h; for fold induction at 5 µM: 5 μM compound; for fold induction at 3 µM: 3 μM compound (asterisk). In a few lines:
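NHLF cells seeded overnight in FGM-2, then exposed to compound or DMSO vehicle for 16 h, fixed, and immunostained for HO-1 with Hoechst nuclear counterstain; imaged on InCell 1000. Values are fold change over DMSO-treated cells, generally at 5 μM (0.8% DMSO), with asterisked entries at 3 μM.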

Compound `Cn1c(Nc2nc3ccc(C(F)(F)F)cc3s2)nc2cc(C(=O)NCCOCCO)ccc21` [Example 236, 1-Methyl-2-(6-trifluoromethyl-benzothiazol-2-ylamino)-1H-benzoimidazole-5-carboxylic acid [2-(2-hydroxy-ethoxy)-ethyl]-amide] registered a fold induction at 5 µM of 45.7.
Same read-out and setting: the figure for `COC(=O)C(C)(C)NC(=O)c1ccc2c(c1)nc(Nc1nc3ccc(OC(F)(F)F)cc3s1)n2C` [Example 145, 2-Methyl-2-{[1-methyl-2-(6-trifluoromethoxy-benzothiazol-2-ylamino)-1H-benzimidazole-5-carbonyl]-amino}-propionic acid methyl ester] is 7.1; for `CN(C)C(=O)CCCNC(=O)c1ccc2c(c1)nc(Nc1nc3ccc(Cl)cc3s1)n2C` [Example 376, 2-(6-Chloro-benzothiazol-2-ylamino)-1-methyl-1H-benzoimidazole-5-carboxylic acid (3-dimethylcarbamoyl-propyl)-amide] it is 19.1; for `Cn1c(Nc2nc3ccc(OC(F)(F)F)cc3s2)nc2cc(C(=O)NCC3CN(C(=O)OC(C)(C)C)CCO3)ccc21` (stereo not shown) [Example 55, 2-({[1-Methyl-2-(6-trifluoromethoxy-benzothiazol-2-ylamino)-1H-benzoimidazole-5-carbonyl]-amino}methyl)-morpholine-4-carboxylic acid tert-butyl ester] it is 4.5.
Still for that read-out and setting: the figure for `COC(=O)c1ccc2c(c1)nc(Nc1nc3cc(F)ccc3s1)n2C` [Example 111, 2-(5-Fluoro-benzothiazol-2-ylamino)-1-methyl-1H-benzoimidazole-5-carboxylic acid methyl ester] is 17.6.
The same measure, in the same setting: the figure for `C[C@@H](CO)CCNC(=O)c1ccc2c(c1)nc(Nc1nc3ccc(OC(F)(F)F)cc3s1)n2C` [Example 223, 1-Methyl-2-(6-trifluoromethoxy-benzothiazol-2-ylamino)-1H-benzoimidazole-5-carboxylic acid ((R)-4-hydroxy-3-methyl-butyl)-amide] is 44.7.
Compound `Cn1c(Nc2nc3ccc(C(F)(F)F)cc3s2)nc2cc(C(=O)NCCCCCO)ccc21` [Example 228, 1-Methyl-2-(6-trifluoromethyl-benzothiazol-2-ylamino)-1H-benzoimidazole-5-carboxylic acid (5-hydroxy-pentyl)-amide] yielded a fold induction at 3 µM of 26.
In turn, `Cn1c(Nc2nc3ccc(OC(F)(F)F)cc3s2)nc2cc(C(=O)NCC(=O)N3CC[C@H](N)C3)ccc21` [Example 412, 1-Methyl-2-(6-trifluoromethoxy-benzothiazol-2-ylamino)-1H-benzoimidazole-5-carboxylic acid [2-((S)-3-amino-pyrrolidin-1-yl)-2-oxo-ethyl]-amide hydrochloride] returned a fold induction at 5 µM of 47.6.
Same read-out and setting: in the case of `Cn1c(Nc2nc3ccc(OC(F)(F)F)cc3s2)nc2cc(C(=O)NCCCCO)c(F)cc21` [Example 222, 6-Fluoro-1-methyl-2-(6-trifluoromethoxy-benzothiazol-2-ylamino)-1H-benzoimidazole-5-carboxylic acid (4-hydroxy-butyl)-amide] it was 49.9.
Still for that read-out and setting: in the case of `CNC(=O)c1ccc2c(c1)nc(Nc1nc3ccc(OC(F)(F)F)cc3s1)n2CCOC` [Example 167, 1-(2-Methoxy-ethyl)-2-(6-trifluoromethoxy-benzothiazol-2-ylamino)-1H-benzoimidazole-5-carboxylic acid methylamide] it was 24.2.
The same measure, in the same setting: in the case of `Cn1c(Nc2nc3ccc(OC(F)(F)F)cc3s2)nc2cc(C(=O)NCC(=O)N3CCOCC3)ccc21` [Example 138, 1-Methyl-2-(6-trifluoromethoxy-benzothiazol-2-ylamino)-1H-benzimidazole-5-carboxylic acid (2-morpholin-4-yl-2-oxo-ethyl)-amide] it was 11; in that of `Cn1c(Nc2nc3ccc(OC(F)(F)F)cc3s2)nc2cc(C(=O)NCCOCCC#N)ccc21` [Example 265, 1-Methyl-2-(6-trifluoromethoxy-benzothiazol-2-ylamino)-1H-benzoimidazole-5-carboxylic acid [2-(2-cyano-ethoxy)-ethyl]-amide], 55; in that of `Cn1c(Nc2nc3ccc(OC(F)(F)F)cc3s2)nc2cc(C(=O)NCCO)ccc21` [Example 10, 1-Methyl-2-(6-trifluoromethoxy-benzothiazol-2-ylamino)-1H-benzoimidazole-5-carboxylic acid (2-hydroxy-ethyl)-amide], 19.9.
On to `CCOC(=O)C1(NC(=O)c2ccc3c(c2)nc(Nc2nc4ccc(OC(F)(F)F)cc4s2)n3C)CC1` [Example 144, 1-{[1-Methyl-2-(6-trifluoromethoxy-benzothiazol-2-ylamino)-1H-benzimidazole-5-carbonyl]-amino}-cyclopropanecarboxylic acid ethyl ester], for which the fold induction at 5 µM is 7.3.
The same measure, in the same setting: in the case of `COCCNC(=O)c1ccc2c(c1)nc(Nc1nc3ccc(S(C)(=O)=O)cc3s1)n2C` [Example 127, 2-(6-Methanesulfonyl-benzothiazol-2-ylamino)-1-methyl-1H-benzimidazole-5-carboxylic acid (2-methoxy-ethyl)-amide] it was 12.4.
`Cn1c(Nc2nc3ccc(Cl)cc3s2)nc2cc(C(=O)NCCN3CCCCC3)ccc21` [Example 334, 2-(6-Chloro-benzothiazol-2-ylamino)-1-methyl-1H-benzoimidazole-5-carboxylic acid (2-piperidin-1-yl-ethyl)-amide] yielded a fold induction at 3 µM of 13.4.
`Cn1c(Nc2nc3cc(F)ccc3s2)nc2cc(C(=O)O)ccc21` [Example 117, 2-(5-Fluoro-benzothiazol-2-ylamino)-1-methyl-1H-benzimidazole-5-carboxylic acid] showed a fold induction at 5 µM of 28.8.
Consider `Cn1c(Nc2nc3ccc(Cl)cc3s2)nc2cc(C(=O)NCCF)ccc21` [Example 209, 2-(6-Chloro-benzothiazol-2-ylamino)-1-methyl-1H-benzoimidazole-5-carboxylic acid (2-fluoro-ethyl)-amide], for which the fold induction at 3 µM is 14.2.
Regarding `CN(C)[C@H]1CCN(C(=O)CNC(=O)c2ccc3c(c2)nc(Nc2nc4ccc(Cl)cc4s2)n3C)C1` [Example 418, 2-(6-Chloro-benzothiazol-2-ylamino)-1-methyl-1H-benzoimidazole-5-carboxylic acid [2-((S)-3-dimethylamino-pyrrolidin-1-yl)-2-oxo-ethyl]-amide], the fold induction at 5 µM was determined as 63.3.
Same read-out and setting: the figure for `CN(C)C(=O)CNC(=O)c1ccc2c(c1)nc(Nc1nc3ccc(OC(F)(F)F)cc3s1)n2C` [Example 80, 1-Methyl-2-(6-trifluoromethoxy-benzothiazol-2-ylamino)-1H-benzoimidazole-5-carboxylic acid dimethylcarbamoylmethyl-amide] is 23.2; for `Cn1c(Nc2nc3ccc(OC(F)(F)F)cc3s2)nc2cc(C(=O)NCCC(=O)OC(C)(C)C)ccc21` [Example 136, 3-{[1-Methyl-2-(6-trifluoromethoxy-benzothiazol-2-ylamino)-1H-benzimidazole-5-carbonyl]-amino}-propionic acid tert-butyl ester] it is 5.7; for `Cn1c(Nc2nc3ccc(F)cc3s2)nc2cc(C(=O)O)ccc21` [Example 118, 2-(6-Fluoro-benzothiazol-2-ylamino)-1-methyl-1H-benzimidazole-5-carboxylic acid] it is 14.1.
